In brackets after ≈: the same amount, converted by molar mass. Like-named read-outs stand apart in the source and are kept apart here. Bounds are passed on as bounds.

Usually EC50 stands for the concentration needed to bring the measured effect to its halfway point.

In series [1] the test system is type 1 herpes (HSV-1), strain McKrae. Type of series: cell-based, Herpes Simplex Type I.
The test system of series [2] is human embryonic lung cell line MRC-5.
In series [3] the test system is type 1 herpes (HSV-1), strain McKrae. Type of series: cell-based, Herpes Simplex Type I. This is another data set of the same source.
Series [4] in a line: in vitro. The following applies: African green monkey.
Series [5] can be described thus: in vitro. The settings on record: African green monkey. The source holds these as a separate data set.
Series [6] deals with San Angelo (SAV). Briefly: microbe, parasite or virus in culture. Type of series: cell-based, San Angelo virus.
The test system of series [7] is San Angelo (SAV). The format is cell-based, San Angelo virus.
The nature of series [8]: in vitro. The settings on record: African green monkey. The source holds these as a separate data set.
Series [9] in a line: in vitro. The settings on record: African green monkey. This is another data set of the same source.
Series [10] relates to African green monkey cells (CV-1).
For series [11] the test system is unchanged. This is another data set of the same source.

Regarding `Nc1nc2c(ncn2COCCO)c(=O)[nH]1` [Acyclovir, acyclovir], the “COMMENT (activity)” value in series [1] and in [3] was “Excellent activity” throughout. In series [2], this compound registered a CC50 of more than 100 µg/mL.
As to `NC(=O)c1ncn([C@@H]2O[C@H](CO)[C@@H](O)[C@H]2O)n1` [Ribavirin, ribavirin], the CC50 in [4], in series [5], in series [8] and in series [9] was more than 100 µg/mL throughout. Further, the “COMMENT (activity)” value in series [6] and in series [7] was “Very good activity” each time. In series [6] (San Angelo virus, Vero), a half-maximal response (EC50) required 30 µg/mL (≈ 123 µM).
As to `Nc1ccn(C[C@@H](CO)OCP(=O)(O)O)c(=O)n1` [HPMPC, cidofovir], the CC50 in series [10] and in series [11] was more than 100 µg/mL throughout.

The record behind these values is patent US7476649B2, “Antiproliferative and antiviral proteins and peptides” (priority 1998, dated 2009).
